Source: patent US8980919B2, “Combination of a carbostyril and carnitine” (Otsuka Pharmaceutical Co., Ltd., priority 2008, dated 2015)

Test system: chronic cerebral ischemia model rats
Assay: Immunohistological evaluation of brain in chronic cerebral ischemia model rats (ligation of both carotid arteries)
Assay type: in vivo, rat
Conditions: for number of GST-pi positive oligodendrocyte in the callosum: after LBCCA, L-carnitine 600 mg/kg/day, cilostazol 50 mg/kg/day, FIG. 2; for number of GST-pi positive oligodendrocyte in the callosum / 8-OHdG positive cell (cell dysfunction by peroxidation): vs vehicle; for 8-OHdG positive cell (cell dysfunction by peroxidation): day 7 to day 28 after LBCCA, FIG. 3; for 8-OHdG positive cell (cell dysfunction by peroxidation) / number of ss-DNA positive cells (marker of apoptosis) / HNE staining positive cells (peroxidative metabolism): P<0.01; for number of ss-DNA positive cells (marker of apoptosis) / HNE staining positive cells (peroxidative metabolism): vs vehicle group; for number of ss-DNA positive cells (marker of apoptosis): FIG. 5; for HNE staining positive cells (peroxidative metabolism): FIG. 4
Protocol: The cerebroprotective action of cilostazol for inflammatory reaction due to oxidative stress and glial cell was studied using chronic cerebral ischemia model rats as cerebrovascular dementia model animals. Using Wister rats (male, aged 7-8 weeks, body weights of 150-200 g), chronic cerebral ischemia model rats are prepared according to the method of […] et al. (Acta Neuropathol (Berl). 87, 484-492, 1993), i.e. by double-ligating both […] of the rats. As a physiological evaluation, body temperature and body fluid of the rats before/after the preparation are measured, and the cerebral blood flow thereof is analyzed with a Doppler device. To the rats of each administration group of vehicle, L-carnitine, cilostazol, and L-carnitine/cilostazol combination, each defined administration is done every day by natural ingestion from the day when the preparation of ischemia was completed to the final day for the experimental evaluation. […] After brain parenchyma of the rats is sliced in 20 μm, HE and KB stainings and several immunostainings are carried out. The dosage of each trial is 600 mg/kg/day for L-carnitine and 50 mg/kg/day for cilostazol. Regarding glial cell, the astrocyte is evaluated with an antibody for GFAP, the microglia is evaluated with an antibody for Iba-1, and the oligodendrocyte is evaluated with an antibody for glutathione S-transferase p^+ (GST-pi). And, the oxidative stress is evaluated with an antibody for anti 4-hydroxy-2-nonenal (HNE).

Row | Compound | number of GST-pi positive oligodendrocyte in the callosum | 8-OHdG positive cell (cell dysfunction by peroxidation) | number of ss-DNA positive cells (marker of apoptosis) (day 14) | HNE staining positive cells (peroxidative metabolism) | number of ss-DNA positive cells (marker of apoptosis) (days 14, 21 and 28)
1 | C[N+](C)(C)C[C@H](O)CC(=O)[O-] [carnitine, L-carnitine] | increased more than that of the vehicle group | significantly decreased | significantly decreased compared with the vehicle group | tended to significantly decrease compared with the vehicle group | 
2 | O=C1CCc2cc(OCCCCc3nnnn3C3CCCCC3)ccc2N1 [cilostazol, 6-[4-(1-cyclohexyl-1H-tetrazol-5-yl)butoxy]-3,4-dihydrocarbostyril] | increased more than that of the vehicle group | significantly decreased |  | tended to significantly decrease compared with the vehicle group | significantly decreased compared with the vehicle group
